Biological target: T1, cystic fibrosis transmembrane conductance regulator (CFTR), wt (Homo sapiens, UniProt P13569)
T1 construct: wt-CFTR stably expressed in BHK cells
Test: automated whole-cell patch clamp, acute potentiation of current activated by […] Fsk on addition of […] compound
Type: cell-based

T1 sequence (P13569 whole entry): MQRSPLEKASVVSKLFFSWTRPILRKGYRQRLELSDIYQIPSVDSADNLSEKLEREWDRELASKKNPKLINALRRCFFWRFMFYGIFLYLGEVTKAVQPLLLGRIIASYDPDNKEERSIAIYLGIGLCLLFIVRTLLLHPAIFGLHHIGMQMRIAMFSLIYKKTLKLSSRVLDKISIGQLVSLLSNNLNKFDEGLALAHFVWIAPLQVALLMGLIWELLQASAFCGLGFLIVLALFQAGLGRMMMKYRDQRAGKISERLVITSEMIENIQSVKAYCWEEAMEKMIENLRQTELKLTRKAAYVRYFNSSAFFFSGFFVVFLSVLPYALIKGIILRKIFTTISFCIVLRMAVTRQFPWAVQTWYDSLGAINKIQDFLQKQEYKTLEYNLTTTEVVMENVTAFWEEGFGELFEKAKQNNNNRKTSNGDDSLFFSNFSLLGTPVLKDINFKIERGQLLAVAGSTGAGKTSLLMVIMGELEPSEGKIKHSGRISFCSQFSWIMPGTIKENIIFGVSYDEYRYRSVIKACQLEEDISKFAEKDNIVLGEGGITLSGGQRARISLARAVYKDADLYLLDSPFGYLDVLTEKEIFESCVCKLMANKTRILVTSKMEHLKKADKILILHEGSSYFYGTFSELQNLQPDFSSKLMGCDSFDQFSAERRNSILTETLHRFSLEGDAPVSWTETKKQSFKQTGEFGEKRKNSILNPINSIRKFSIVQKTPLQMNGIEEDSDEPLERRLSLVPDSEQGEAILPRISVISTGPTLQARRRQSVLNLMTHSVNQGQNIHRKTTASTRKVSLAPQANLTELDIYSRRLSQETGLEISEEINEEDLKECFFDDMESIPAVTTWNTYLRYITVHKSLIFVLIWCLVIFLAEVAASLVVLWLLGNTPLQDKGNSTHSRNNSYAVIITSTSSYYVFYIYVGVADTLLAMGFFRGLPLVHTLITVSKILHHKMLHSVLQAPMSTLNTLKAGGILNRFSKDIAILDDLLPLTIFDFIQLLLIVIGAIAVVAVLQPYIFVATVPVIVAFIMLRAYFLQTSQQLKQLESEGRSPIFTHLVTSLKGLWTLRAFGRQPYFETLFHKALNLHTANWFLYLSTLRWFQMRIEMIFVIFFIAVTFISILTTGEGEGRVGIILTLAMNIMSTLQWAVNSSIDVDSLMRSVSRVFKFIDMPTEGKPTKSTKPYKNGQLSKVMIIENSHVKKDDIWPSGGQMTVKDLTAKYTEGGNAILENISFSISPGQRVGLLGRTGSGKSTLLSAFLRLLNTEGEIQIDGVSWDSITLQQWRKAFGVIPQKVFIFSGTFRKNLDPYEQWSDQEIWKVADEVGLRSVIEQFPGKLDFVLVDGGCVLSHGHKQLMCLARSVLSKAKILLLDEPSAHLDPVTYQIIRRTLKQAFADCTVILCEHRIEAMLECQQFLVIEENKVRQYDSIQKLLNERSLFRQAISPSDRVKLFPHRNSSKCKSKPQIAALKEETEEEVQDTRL

CC(C)(C)c1cc(C(C)(C)C)c(NC(=O)c2c[nH]c3ccccc3c2=O)cc1O [VX770]
automated whole-cell patch clamp, acute potentiation of current activated by 1 μ: clearly demonstrate potentiation of the Fsk-activated current by the potentiator VX770
